The text below walks through data of patent publication US20130274233A1, “MODULATORS OF HEDGEHOG SIGNALING PATHWAY” (priority 2012, published 2013).

Series [1] relates to Hh pathway activity. Description: Gli-luciferase reporter assay, Shh-induced Hh pathway activity (ShhLightII cells). The format is cell-based. The note with it: Gli-luciferase induction and Smo ciliary localization; 10 μM FA. An excerpt:
(§1) NIH/3T3 cells were maintained in DMEM containing 10% (v/v) calf serum, penicillin, streptomycin, and L-glutamine. HEK293, L, cos 7, and suFU−/− mouse embryonic fibroblast cells were maintained in DMEM containing 10% (v/v) fetal bovine serum, penicillin, streptomycin, and L-glutamine. Smo::EGFP, SmoM2::GFP, and Ivs::tagRFPT were cloned into pBabe to generate retroviral particles for infection. Smo::EGFP/Ivs::tagRFPT and SmoM2::GFP/Ivs::tagRFPT stable cell lines were generated through viral infection of NIH/3T3^12. A ShhLightII Gli reporter cell line was obtained from the American Type Culture Collection (ATCC) and used in luciferase reporter assays to measure Hh pathway activity. The cell line contains a stably integrated Gli-responsive Firefly luciferase reporter and a constitutive Renilla luciferase expression construct^33. Subclones expressing Smo or SmoM2 in ShhLightII cells were used for chemical epistasis analyses.
(§2) Hh activity assays were performed using ShhLightll cells, Smo/Lightll cells, SmoM2/Lightll cells, and suFU−/− mouse embryonic fibroblasts. In the suFU−/− cells, Hh activity was measured after co-transfection with Gli driven firefly luciferase and TK-renilla luciferase reporters^41. Wnt activity was measured in 293 cells co-transfected with Top-flash and TK-renilla luciferase reporters^42. Cells were cultured and treated in 96 well assay plates (Corning) and incubated with Duo-Glo luciferase substrates (Promega) to measure firefly and renilla luciferase activity sequentially using a Top Count NX Microplate Scintillation and Luminescence Counter (Perkin Elmer). The renilla luciferase signal was used to normalize the firefly reporter activity.
(§3) ShhLightII cells and SmoM2/LightII cells were cultured and treated in 96 well assay plates (Corning) and incubated with Duo-Glo luciferase substrates (Promega) to sequentially measure firefly and renilla luciferase activity. Smo, or GFP, expression plasmids were co-transfected into 3T3 cells together with a Gli-responsive firefly reporter and a TK-renilla luciferase reporter contruct to monitor effects of Smo overexpression. Co-transfection of the two reporter constructs was conducted in assays measuring Hh pathway activity in suFU−/− cells. Wnt activity was measured following co-transfection of a Top-flash and renilla luciferase reporter. In both Hh and Wnt activity assays, renilla luciferase reporter activity, or mass of protein, was used to normalize expression values. Luciferase signal was read by TopCount NX Microplate Scintillation and Luminescence Counter (Perkin Elmer). Quantitative PCR probes for Ptch1, Gli1, and β-actin were purchased from Applied Biosystems. Reactions and measurements were performed using on an Applied Biosystems 7900HT at Harvard FAS Center of System Biology. β-actin was used to normalize Ptch1 and Gil1 values.
On the technique in general: In a reporter assay the amount or activity of a reporter protein is the signal.

Series [2] relates to Hh pathway activity. Description: Priming and withdrawal of compound followed by Shh stimulation, Gli-luciferase reporter (hypersensitivity). The format is cell-based. The note with it: priming 24 hours, washout, then Shh (or SAG) stimulation. The method, then: as §2
Following the removal of drug containing medium, and extensive washing, cells were stimulated with either Hh ligand, or the direct-binding Smo agonist SAG^17,18.
as §3

The next series deals with Smo. In words: Bodipy-cyclopamine competition assay in Cos 7 cells expressing Smo. The format is binding. The note with it: cells over-expressing Smo, 5 nM Bodipy-cyclopamine. Here is the method:
Cos 7 cells were transfected with a plasmid co-expressing Smo and a nuclear localized form of tagRFPT (pCIT-Smo). An empty parental construct (pCIT), and a construct that co-expresses SmoM2, were used as controls to assess specificity and background noise. Three days after transfection, cells were incubated with 5 nM Bodipy-cyclopamine, with or without other compounds for 1 hour at 37 °C. Cells were washed, fixed and stained with Hoechst. Images were collected by an Opera High Content Screen System. Bodipy fluorescence was quantified specifically for transfected cells (determined by red tagRFPT+ nucleus) using a program developed by the authors with Acapella 2.0 software. All of the images were scanned with identical microscopic settings and analyzed with the same input parameters.
Cos 7 cells were transfected with a plasmid that co-expresses Smo and a nuclear localized tagRFPT marker (pCIT-Smo). The empty parental construct (pCIT) and a construct that co-express SmoM2 were used as controls to assess specificity and background signal. Three days after transfection, cells were incubated with 5 nM Bodipy-cyclopamine, with or without additional compounds, for 1 hour at 37° C. Cells were then fixed and stained with Hoechst. Images were collected with the Opera High Content Screen System. Fluorescence values were assessed in transfected cells (red nuclei) with a program developed by the authors using Acapella 2.0 software. All of images were scanned with identical microscopic setting and analyzed with the same input parameters.

The target of series [3] is T1, Smo::EGFP (Homo sapiens, UniProt Q99835).
T1 construct: expressed in transfected cells
T1 sequence (Q99835 28-787): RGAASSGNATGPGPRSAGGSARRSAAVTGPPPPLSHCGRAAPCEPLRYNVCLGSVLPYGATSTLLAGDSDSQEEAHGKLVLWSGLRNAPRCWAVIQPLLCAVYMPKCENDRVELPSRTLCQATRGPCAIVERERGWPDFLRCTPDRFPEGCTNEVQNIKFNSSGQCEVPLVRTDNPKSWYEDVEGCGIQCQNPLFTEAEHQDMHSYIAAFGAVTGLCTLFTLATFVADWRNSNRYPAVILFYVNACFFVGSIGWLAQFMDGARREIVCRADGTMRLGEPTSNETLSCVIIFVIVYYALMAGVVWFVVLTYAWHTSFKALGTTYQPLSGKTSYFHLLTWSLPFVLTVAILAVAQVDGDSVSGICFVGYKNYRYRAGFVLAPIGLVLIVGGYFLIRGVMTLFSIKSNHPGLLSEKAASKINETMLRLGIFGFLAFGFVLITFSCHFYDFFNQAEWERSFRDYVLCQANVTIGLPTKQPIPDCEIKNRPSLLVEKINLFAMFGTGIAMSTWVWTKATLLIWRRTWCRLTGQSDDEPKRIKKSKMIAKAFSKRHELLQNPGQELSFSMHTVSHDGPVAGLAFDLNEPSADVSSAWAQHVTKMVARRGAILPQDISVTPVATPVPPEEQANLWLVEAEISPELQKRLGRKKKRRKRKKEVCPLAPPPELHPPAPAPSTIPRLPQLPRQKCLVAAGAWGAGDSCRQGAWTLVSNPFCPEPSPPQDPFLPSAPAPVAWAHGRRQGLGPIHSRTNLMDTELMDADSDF
In words: High content screen for compound-induced Smo accumulation at the primary cilium (no Hh ligand). The format is cell-based. The method, then: Cells were cultured and treated in 384-well imaging plate precoated with poly-D-Lysine (Greiner Bio-one), fixed with 4% paraformaldehyde (Electron Microscopy Sciences), and stained with Hoechst (Invitrogen). Images were collected using Opera High Content Screening System (Perkin Elmer).

The conditions of series [4]: human cancer patients, after a single high dose; cited from earlier work.
In series [5] the test system is Hh pathway activation induced by loss of suFU. In words: Gli-luciferase assay in suFU−/− mouse embryonic fibroblasts. It is filed as cell-based. The note with it: suFU−/− cells. The method, then:
as §2
ShhLightII cells and SmoM2/LightII cells were cultured and treated in 96 well assay plates (Corning) and incubated with Duo-Glo luciferase substrates (Promega) to sequentially measure firefly and renilla luciferase activity. […] Wnt activity was measured following co-transfection of a Top-flash and renilla luciferase reporter. […] Luciferase signal was read by TopCount NX Microplate Scintillation and Luminescence Counter (Perkin Elmer). Quantitative PCR probes for Ptch1, Gli1, and β-actin were purchased from Applied Biosystems. […]

Series [6] addresses T1, Smo::EGFP. In words: FA promoted accumulation of Smo in the PC, inhibition by Smo antagonists. It is filed as cell-based. The note with it: FA-induced. Here is the method:
(§4) Cells were cultured and treated in 384-well imaging plate precoated with poly-D-Lysine (Greiner Bio-one), fixed with 4% paraformaldehyde (Electron Microscopy Sciences), and stained with Hoechst (Invitrogen). Images were collected using Opera High Content Screening System (Perkin Elmer). ActivityBase (IDBS), Pipeline Pilot (Accelrys), Excel (Microsoft), and Prism (GraphPad) were used for high content screening data management and analysis. Acapella 2.0 software (Evotec Technologies/PerkinElmer) was used to perform multi-parametric image quantification. All the comparative images were scanned with identical microscopic setting and analyzed with the same input parameters.

A further series addresses T2, SmoM2::GFP (Homo sapiens, UniProt Q99835, W535L).
T2 construct: expressed in transfected cells
Description: Ciliary localization of SmoM2::GFP (3T3/SmoM2::GFP Overexpression/Ivs::tagRFPT). It is filed as cell-based. The note with it: SmoM2::EGFP overexpressing cells.
Source text: as §1
as §4, with “Activityl)ase (IDBS Inc, Emeryvill, Calif.) and” for “ActivityBase (IDBS),”, “(Accelrys, Inc. San Diego, Calif.)” for “(Accelrys), Excel (Microsoft), and Prism (GraphPad)”, “multi-parametrical high content” for “multi-parametric”, “the” for “the comparative”, “images for comparison” for “images”, “settings” for “setting”
(§5) Acapella 2.0 software (Evotec Technologies/PerkinElmer) was used to perform multi-parametric high content image quantification. Our image analysis script used Ivs::tagREPT to first determine the location of the PC and then Smo::EGFP to quantify the level of Smo present in the cilium.

The target of series [7] is T1, Smo::EGFP. In words: High content assay of Shh-induced Smo::EGFP accumulation in the primary cilium (Smo::EGFP/Ivs::tagRFPT NIH/3T3 cells). The note with it: in the presence of Shh. The format is cell-based.
Source text: as §1
as §4, with “Activityl)ase (IDBS Inc, Emeryvill, Calif.) and” for “ActivityBase (IDBS),”, “(Accelrys, Inc. San Diego, Calif.)” for “(Accelrys), Excel (Microsoft), and Prism (GraphPad)”, “multi-parametrical high content” for “multi-parametric”, “the” for “the comparative”, “images for comparison” for “images”, “settings” for “setting”
as §5
The inventors used the spot-finding algorithm in the RFP channel to find Ivs-rich spots. Each non-overlapping spot was based on a maximum 8 pixel-radius (when using a 40× objective) around a central intensity peak of 5 pixels. A distance of at least 10 pixels was required between adjacent spot centers. Spot peaks had to exceed thresholds of relative intensity compared to the remaining body of the spot as well as to the entire image. The average, maximum and total RFP intensity of each spot were measured. The spots with sufficiently high absolute maxima to pass the selected threshold were classified as positive spots. To form candidate cilia, the inventors selected the brightest 15% of the pixels in each positive spot and merged those pixels into objects so that the brightest parts of adjacent spots could form single, larger cilia-shaped objects. To qualify the candidate cilia as true Ivs-positive cilia, the width of the objects created from merging the brightest pixels in each spot had to be at least 2 pixels and the length to half-width ratio had to exceed 3. (i.e. a 3-pixel long by 2-pixel wide cilium was the minimum accepted cilium size and the length had to be at least 1.5 fold of the width). The mean GFP intensity within these Ivs-positive cilia was used to estimate the ciliary level of Smo protein. The inventors subtracted the background of the mean GFP intensity in the 3-pixel wide area around each candidate cilium to avoid some false positives. Those Ivs-positive cilia that exceed the final mean GFP intensity threshold set for each experiment were deemed Smo-positive cilia.
Hoechst staining was used to determine the total number of nuclei per well.
Measurements of the geometry of the cilia as well as the total fluorescent intensities of each cilium in the Smo- and Ivs-channels were used to determine if any of the compounds were having unusual effects on cilia size, intensity or frequency of observation or combinations of all three characteristics.

Series [8] addresses T1, Smo::EGFP. Description: Cyc-induced Smo ciliary accumulation (Smo::EGFP/Ivs::tagRFPT cells). The note with it: 5 μM Cyc. It is filed as cell-based. The method, then: as §4, with “Activityl)ase (IDBS Inc, Emeryvill, Calif.) and” for “ActivityBase (IDBS),”, “(Accelrys, Inc. San Diego, Calif.)” for “(Accelrys), Excel (Microsoft), and Prism (GraphPad)”, “multi-parametrical high content” for “multi-parametric”, “the” for “the comparative”, “images for comparison” for “images”, “settings” for “setting”
as §5

The next series deals with SmoM2. Description: Gli-luciferase reporter induced by SmoM2::GFP overexpression (SmoM2/LightII cells). The format is cell-based. The note with it: SmoM2 versus wild-type Smo.
Source text: as §1, §2, §3

The test system of series [9] is Hh pathway activity. In words: Gli-luciferase reporter assay, Hh pathway activation by compound alone (NIH/3T3 cells). It is filed as cell-based. The method, then:
as §3

Where only a bound is given, the exact number is not on record here.

T2 sequence (Q99835 28-787 W535L): as the sequence (Q99835 28-787) above, with W508L counted along it

Consider `CC1=C2C[C@H]3[C@@H](CC=C4C[C@@H](O)CC[C@@]43C)[C@@H]2CC[C@]12O[C@@H]1C[C@H](C)CN[C@H]1[C@H]2C` [Cyc, Cyclopamine], for which, in the series with Hh pathway activity [1], the “Hh pathway inhibition by the antagonist in the presence of FA” value (from here on “Hh pathway inhibition by the antagonist”) was “dramatically reduced”. For the same compound, the “hypersensitivity to Hh pathway stimulation after priming with and removal of compound, Gli-luciferase” value with Hh pathway activity [2] was “elevated signaling response”. The “competition of Bodipy-Cyc binding to Smo” value with Smo is given as “effective competitor”. Moreover, at Smo::EGFP [3], the “induction of Smo accumulation in the PC by compound alone” value is “induces its accumulation in the PC”.

As to `C[C@@H]1C[C@H]2[C@@H]3CCC4=CC(=O)C=C[C@]4(C)[C@@]3(F)[C@@H](O)C[C@]2(C)[C@@]1(O)C(=O)CO` [Dexamethasone], the peak plasma concentration in series [4] is above 10 µM.

As to `CS(=O)(=O)c1ccc(C(=O)Nc2ccc(Cl)c(-c3ccccn3)c2)c(Cl)c1` [GDC0449], the “effect on Hh pathway activation induced by loss of suFU” value in series [5] is on record as “does not alter”. Also, the “Hh pathway inhibition by the antagonist” value in the series with Hh pathway activity [1] is “dramatically reduced”. Besides, at Smo::EGFP [6], the “effect on FA promoted accumulation of Smo in the PC” value is listed as “inhibit”. Also, in the series with Hh pathway activity [2], the “hypersensitivity to Hh pathway stimulation after priming with and removal of compound, Gli-luciferase” value is on record as “no enhancing activity”. Moreover, the “effect on SmoM2 ciliary localization” value at SmoM2::GFP was “did not alter SmoM2 ciliary accumulation”. The “inhibition of Shh-induced Smo::EGFP accumulation in the PC” value on Smo::EGFP [7] is reported as “specifically inhibited Smo::EGFP accumulation in the PC”. The “effect on Cyc induced Smo cilial accumulation” value at Smo::EGFP [8] is “effectively compete with Cyc”. Besides, the “IC50's for SmoM2 relative to IC50's for wildtype Smo” value in the series with SmoM2 was “at least an order of magnitude higher”.

As for `CNC1CCC(N(Cc2cccc(-c3ccncc3)c2)C(=O)c2sc3ccccc3c2Cl)CC1` (centres unmarked) [SAG], the “transcriptional response in Gli-luciferase reporter assay” value in the series with Hh pathway activity [9] (1 μM SAG) stood at 25 fold. The “induction of Smo accumulation in the PC by compound alone” value on Smo::EGFP [3] was “induces its accumulation in the PC”.

With `Cc1nn(-c2ccccc2)c(C)c1/C=N/N1CCN(Cc2ccccc2)CC1` [SANT-1], in the series with Hh pathway activity [1], the “Hh pathway inhibition by the antagonist” value is given as “dramatically reduced”. Besides, the “effect on FA induced activation of the Hh pathway” value in the series with Hh pathway activity [9] (FA at high concentrations) is given as “blocked”. Further, the “effect on FA promoted accumulation of Smo in the PC” value on Smo::EGFP [6] is “inhibit”. The “effect on SmoM2 ciliary localization” value at SmoM2::GFP is reported as “did not alter SmoM2 ciliary accumulation”. For the same compound, the “competition of Bodipy-Cyc binding to Smo” value with Smo was “effective competitor”. The “inhibition of Shh-induced Smo::EGFP accumulation in the PC” value on Smo::EGFP [7] is recorded as “specifically inhibited Smo::EGFP accumulation in the PC”. For the same compound, the “effect on Cyc induced Smo cilial accumulation” value at Smo::EGFP [8] is “effectively compete with Cyc”. Besides, in the series on SmoM2, the “IC50's for SmoM2 relative to IC50's for wildtype Smo” value is “at least an order of magnitude higher”.
